Data published in patent US20150202313A1, “Macromolecular Prodrugs for Hard Tissue and Methods of Use Thereof” (New York Society for The Ruptured and Crippled Maintaining …, priority 2012, published 2015).

Legend:
[1] = Weight loss side effect during treatment; conditions: in vivo
Text: Eighteen 10-week-old male Swiss Webster mice were osteotomized and randomly assigned into three groups (6 mice/group). […] The overall SIM doses given to the SIMA and SIM/SIM-mPEG were equivalent. All mice were euthanized 21 days post osteotomy.

[2] = test system: open fracture mouse model (femoral shaft fracture); test: Therapeutic efficacy in open fracture mouse model, Safranin O histology of callus; type: in vivo, Swiss Webster mice; conditions: 21 days post fracture
Method: (§1) Ten-week-old male Swiss Webster mice were purchased from Charles River Laboratories, and maintained under standard housing conditions. The animals were acclimated for at least 1 week before any experimental procedure. Under general anesthesia with isoflurane, the hips, thighs, and knees on the right side of the animal were prepared with Betadine (povidone-iodine) solution. A 1.0 cm right medial parapatellar incision was made on the right knee. The patella was dislocated laterally to expose the femoral condyles. A 25-guage needle was introduced into the canal and driven in a retrograde intramedullary fashion to the level of the greater trochanter. Distally, the needle was cut flush with the cortex (length was about 1.4 cm) so as not to interfere with motion of the knee. Controlled unilateral transverse femoral shaft fractures were created with a #15 blade. […] Postoperatively, mice were placed on clean paper towels in their cages (to avoid inhalation/aspiration of the bedding material) and monitored until the animals were fully awake. The mice were monitored for signs of pain with analgesia and antibiotics given according to established protocol. […]
After micro-CT analysis, the fractured femurs were decalcified using 14% EDTA at room temperature for 30 days. […] The specimens were then paraffin embedded, sectioned (5 μm thickness), stained with Safranin 0 and histologically evaluated.

[3] = test system: open fracture mouse model (femoral shaft fracture); test: Therapeutic efficacy in open fracture mouse model, micro-CT analysis of callus; type: in vivo, Swiss Webster mice
Method: as §1, with “knee.” for “knee. Controlled unilateral transverse femoral shaft fractures were created with a #15 blade.”
For the quantitative analysis, we specifically focused on the site of fracture callus formation. […] The following parameters were measured and calculated: callus volume (Cl.V), callus thickness (Cl.Th), callus separation (Cl.Sp) and the ratio of callus surface to volume (Cl.S/Cl.V). […]

## CCC(C)(C)C(=O)O[C@H]1C[C@@H](C)C=C2C=C[C@H](C)[C@H](CC[C@@H](O)C[C@@H](O)CC(=O)O)[C@H]21 [SIMA, simvastatin acid]
[1]
  side effect of weight loss: weight loss observed
[2]
  histological features of callus sections (Safranin O): intermediate stage between CON and SIM/SIM-mPEG groups
[3]; 21 days post osteotomy, SIMA equiv. SIM 6 mg/kg/day i.p., micelles equiv. SIM 42 mg/kg/wk i.v.
  quantitative morphometric indices of callus (micro-CT), comparison with CON: No statistical significance
[3]; 21 days post-fracture
  mineralization of the fracture callus (micro-CT images): less mineralized callus formation at the fracture site
